In assay [1] the test system is CuFi-1 (ΔF508/ΔF508) airway epithelia. Put plainly: Ussing chamber permeabilization of differentiated CF airway epithelia. It counts as cell-based, human. As to conditions: differentiated CuFi-1 epithelia. As for the experimental part:
A series of natural products and synthetic compounds reported previously to permeabilize liposomes, cells, and/or nasal epithelia of mice to anions (11-14) were tested using an Ussing chamber and differentiated cultures of airway epithelia derived from an immortalized airway epithelial cell line from a CF patient having the most common ΔF508/ΔF508 genotype (CuFi-1) (15). […] The capacity for AmB and C35deOAmB to transport bicarbonate across cholesterol-containing POPC liposomes was tested using an adapted ^13C NMR-based assay (18).

The next assay concerns yeast. The settings on record: cited from earlier work.
In assay [2] the test system is primary cultured human CF epithelia. Put plainly: ASL viscosity (FITC-dextran FRAP). As to conditions: AmB 2 μM, 48 h. The assay is classed as cell-based. As for the experimental part:
ASL viscosity in airway epithelial cultures was determined (7, 25). Small diameter primary cultured epithelia were used for this experiment (0.33 cm^2). The apical surface was not washed for at least 2 weeks before study. Cultured epithelia were treated with 2 µM AmB administered in perfluorocarbon (FC-72, Sigma) for 48 hours. FITC-dextran (70 kD, Sigma) was then administered to the apical surface of epithelia as a dry powder 2 hrs before measurement of viscosity. FRAP was assayed in a humidified chamber at 37° C. using a Zeiss LSM 510 μMETA microscope. Images were acquired until maximal recovery was reached. At least 6 recovery curves from different locations in each culture were acquired and averaged to obtain data for one epithelial culture. The time constant […] was calculated by regression analysis from fluorescence recovery curves. Viscosity is expressed relative to the time constant of saline (τASL/τsaline).

The subject of a further assay is CuFi-1 epithelia. In words: ASL height by confocal microscopy. It counts as cell-based, human. The protocol: ASL height was studied using an established fluorescent dye assay (60, 61). Small diameter NuLi and CuFi-1 cultured epithelia were used for this experiment (0.33 cm^2). 24 hours prior to the start of experiment, the apical side of all cultured epithelia was rinsed three times with warm PBS to remove excess mucus. NuLi epithelia were treated with perfluorocarbon (FC-72) vehicle or 500 µM basolateral bumetanide in DMSO vehicle applied to the media, and CuFi epithelia were treated with 20 μL vehicle, 0.005, 0.5, or 50 μM AmB, or 0.5 μM C35deOAmB suspended in perfluorocarbon (FC-72, Sigma), with or without 500 μM basolateral bumetanide in DMSO vehicle applied to the media and incubated for 24 hours at 37° C. After 24 hours, 2.5 μL of a 2 mg/mL 70 kDa Texas Red-dextran conjugate (Molecular Probes) solution in PBS was added to the apical side of the epithelia, followed by 100 μL of FC-770 to prevent evaporation. Then the culture support was placed on top of 100 μL of PBS on a 10 mm glass bottom Fluorodish for imaging (World Precision Instruments). Epithelia were imaged immediately after dye addition and again at 24 hours to examine dye absorption. Three Z-stack images per membrane were taken on an Zeiss LSM700 confocal microscope at 40× oil immersion. These images were analyzed using ImageJ (62) to determine the average ASL height in the center 1300 pixels of each image. Images were smoothed, converted to 8-bit, and thresholded to most accurately represent the red area. The parameters for Analyze Particles were particles from 1-Infinity μm^2 in size and from 0%-100% circularity. Height was determined by dividing the area output in pixels by the known 1300 pixel width and converted to microns using the known scaling factor of 0.49 µm/pixel.

In assay [3] the test system is primary cultured airway epithelia derived from humans with CF. In words: ASL pH in primary cultured airway epithelia from CF donors. It counts as cell-based, human. The protocol: Airway epithelial cells were obtained from human trachea and bronchi of CF and non-CF specimens obtained from the Iowa Donor Network, either as post-mortem specimens or from tissue deemed not fit for transplant. Studies were approved by the University of Iowa Institutional Review Board. After pronase enzymatic digestion, cells were seeded onto collagen-coated semi-permeable membranes (0.33-1.12 cm^2, Corning 3470 polyester, 3460 polyester, 3413 polycarbonate) and grown at an air-liquid interface (52). Airway epithelial cell cultures were analyzed after they had differentiated and at least 14 days post-seeding.
Small diameter NuLi, CuFi, and primary cultured epithelia were used for this experiment (0.33 cm^2). The ratiometric pH indicator SNARF-conjugated dextran (Molecular Probes) was used to measure ASL pH. SNARF powder was suspended via sonication in perfluorocarbon (FC-72, Sigma) and distributed onto the apical surface. ASL pH was measured 2 hr later (3, 4, 25). SNARF was excited at 488 nm and emission was recorded at 580 nm and 640 nm using a Zeiss LSM 800 microscope at 40× water immersion for cell line cultures and a Zeiss LSM 510 microscope for primary cultures. To generate a standard curve for pH determination, SNARF was dissolved in colorless pH standards and fluorescence ratios were converted to pH.
Agents tested in this assay were first lyophilized into powder and then suspended in the appropriate volume of perfluorocarbon (FC-72, Sigma) and sonicated for 1 minute to suspend. AmBisome should not be sonicated; instead, the fine powder was suspended by vortexing.
In all experiments, ASL pH of compound-treated epithelia was measured compared the results to vehicle-treated epithelia.
For apical AmB administration, cultured airway epithelia were incubated for 30 min-48 hrs at 37° C. before measurement of ASL pH. For AmB-cholesterol complex and C35deOAmB administration, cultured airway epithelia were incubated for 48 hrs at 37° C. before measurement of ASL pH. To test the effect of […] ATPase inhibition, AmB was administered 47 hours prior to 10 mM ouabain addition, and cultured airway epithelia were incubated for an additional 1 hr at 37° C. before measurement of ASL pH. For 10 μM ivacaftor/10 μM forskolin administration, cultured airway epithelia were incubated for 2 hrs at 37° C. before measurement of ASL pH (25). For basolateral AmB administration, a 2 mM stock of AmB in DMSO was diluted 1000-fold to a final concentration of 2 μM in USG media. The basolateral media of cultured airway epithelia was replaced with the AmB-containing USG media and incubated for 48 hrs at 37° C. before measurement of ASL pH.

The text below walks through data of patent publication US12090164B2, “Genotype-agnostic rescue of cystic fibrosis with small molecule bicarbonate channels” (The Board of Trustees of the University of Illinois, priority 2017, dated 2024).

Structures are written as SMILES. Entries after “also recorded” stand apart in the source; their conditions may differ.

Regarding `C[C@@H]1[C@H](O)[C@@H](C)/C=C/C=C/C=C/C=C/C=C/C=C/C=C/[C@H](O[C@@H]2O[C@H](C)[C@@H](O)[C@H](N)[C@@H]2O)C[C@@H]2O[C@](O)(C[C@@H](O)C[C@@H](O)[C@H](O)CC[C@@H](O)C[C@@H](O)CC(=O)O[C@H]1C)C[C@H](O)[C@H]2C(=O)O` [AmB, amphotericin B], the “change in short circuit current / permeabilization of epithelia” value in assay [1] is recorded as “exceptionally effective in causing a change in short circuit current”. The “toxicity / fungicidal activity to yeast” value in the assay with yeast is “highly toxic to yeast”. Further, in assay [2], the “ASL viscosity (τASL/τsaline)” value is recorded as “decreased ASL viscosity across a wide range of patient genotypes” and the “average magnitude of viscosity reduction” value is listed as around 1.5 units. Also, the “ASL height, basolateral AmB” value with CuFi-1 epithelia is reported as “did not increase ASL height”. Moreover, the “ASL height, apical addition” value in the assay on CuFi-1 epithelia (0.5 μM) is “increased ASL height in CuFi-1 epithelia to match that of NuLi epithelia; also recorded: increases ASL height”. Moreover, the “ASL pH, apical addition” value in assay [3] (9 donors, 2 μM, 48 h) is on record as “caused an increase in ASL pH across a wide range of different genotypes; also recorded: increased ASL pH; also recorded: restores ASL pH”. The “ASL pH, basolateral addition of AmB” value in assay [3] (AmB 2 μM basolateral, 48 h) is reported as “did not increase ASL pH”. In assay [3] (apical AmB 2 μM), the “average increase in ASL pH” value is reported as 0.2 pH units and the “time for which the increase in ASL pH is sustained” value is “at least 48 hours”.
